Assay results published in patent US11207291B2, “Antimicrobial compositions comprising cannabinoids and methods of using the same” (Graphium Biosciences, Inc., priority 2017, dated 2021).
In brackets after ≈: the same amount, converted by molar mass. Where two headings read alike, the source gives them in different places.

Assays:
Candida parapsilosis [1] = experiment: Broth microdilution MIC, yeast and fungi (Example 1); assay type: cell-based; conditions: Example 1, isolate MMX 2323 (ATCC 22019)
Candida parapsilosis [2] = conditions: ATCC 22019, Example 4 table, cited from earlier work
Aspergillus fumigatus [3] = experiment: Broth microdilution MIC, fungi (Example 4); assay type: cell-based; conditions: Example 4, isolate MMX 5280 (MYA-3626)
Aspergillus fumigatus [4] = experiment: Broth microdilution MIC, yeast and fungi (Example 1); assay type: cell-based; conditions: isolate MMX 5280 (ATCC MYA-3626)
Aspergillus fumigatus [5] = conditions: MYA-3626; 48 hr; Example 4 table; cited from earlier work
Candida parapsilosis [6] = conditions: ATCC 22019, Example 1 table, cited from earlier work
Candida parapsilosis [7] = experiment: Broth microdilution MIC, fungi (Example 4); assay type: cell-based; conditions: Example 4, isolate MMX 2323 (ATCC 22019)
Aspergillus fumigatus [8] = conditions: ATCC MYA-3626; 48 hr; Example 1 table; cited from earlier work

In the case of `C[C@@H]1[C@H](O)[C@@H](C)/C=C/C=C/C=C/C=C/C=C/C=C/C=C/[C@H](O[C@@H]2O[C@H](C)[C@@H](O)[C@H](N)[C@@H]2O)C[C@@H]2O[C@](O)(C[C@@H](O)C[C@@H](O)[C@H](O)CC[C@@H](O)C[C@@H](O)CC(=O)O[C@H]1C)C[C@H](O)[C@H]2C(=O)O` [Amphotericin B], the “MIC at 24 hr” value (Candida parapsilosis [1]; 24 hr) is listed as 0.5 µg/mL (≈ 0.541 µM), the “MIC at 48 hr” value (Candida parapsilosis [1]; 48 hr) is listed as 1 µg/mL (≈ 1.08 µM) and the “CLSI QC range (MIC)” value (Candida parapsilosis [2]; 24 hr) is listed as “(0.5-2)^3, μg/mL”. For the same molecule, the “CLSI QC range (MIC)” value (Candida parapsilosis [2]; 48 hr) was “(0.25-4)^3 μg/mL”, the “MIC at 24 hr” value (Aspergillus fumigatus [3]; 24 hr) was 0.25 µg/mL (≈ 0.271 µM) and the “MIC at 48 hr” value (Aspergillus fumigatus [3]; 48 hr) was 1 µg/mL (≈ 1.08 µM). The “MIC at 24 hr” value (Aspergillus fumigatus [4]; 24 hr) was 0.5, μg/mL, the “MIC at 48 hr” value (Aspergillus fumigatus [4]; 48 hr) was 2 µg/mL (≈ 2.16 µM) and the “CLSI QC range (MIC)” value (Aspergillus fumigatus [5]) was “(0.5-4)^3 μg/mL”. The “CLSI QC range (MIC)” value (Candida parapsilosis [6]; 24 hr) was 0.5 to 2 µg/mL, the “CLSI QC range (MIC)” value (Candida parapsilosis [6]; 48 hr) was 0.25 to 4 µg/mL and the “MIC at 24 hr” value (Candida parapsilosis [7]; 24 hr) was 0.12 µg/mL (≈ 0.13 µM). For the same molecule, the “MIC at 48 hr” value (Candida parapsilosis [7]; 48 hr) was 0.5 µg/mL (≈ 0.541 µM) and the “CLSI QC range (MIC)” value (Aspergillus fumigatus [8]) was 0.5 to 4 µg/mL.
